Source: ChEMBL document CHEMBL5634151, “Anti-adipogenic action of a novel oxazole derivative through activation of AMPK pathway” (Eur J Med Chem, 2023)
Calls of active or inactive are those of the source.

Legend:
[1] = Toxicity in high-fat diet induced Syrian golden hamster obese model assessed as effect on food intake at 25 to 50 mg/kg, po administered for 7 days and measured daily; assay type: organism-based, Mesocricetus auratus; conditions: in vivo, 168 h, dose 25-50 mg/kg, time 7 day
C3H 10T1/2 [2] = experiment: Inhibition of MDI-cocktail induced adipogenic differentiation in mouse C3H 10T1/2 cells assessed as inhibition of lipid accumulation by Oil Red O staining based microscopic analysis; assay type: functional, cell-based; conditions: dose 0.5-20 µM
3T3-L1 [3] = experiment: Inhibition of MDI-cocktail induced adipogenic differentiation in mouse 3T3-L1 pre-adipocyte cells assessed as reduction in FASN gene expression at 5 uM by qRT-PCR analysis; assay type: functional, cell-based
3T3-L1 [4] = experiment: Induction of mitochondrial respiration in MDI-cocktail differentiated mouse 3T3-L1 pre-adipocyte cells assessed as increase in oxygen consumption rate at 5 uM incubated for 72 hrs by Seahorse XFp flux analyzer; assay type: functional, cell-based
3T3-L1 [5] = experiment: Induction of ATP production during early phase in MDI-cocktail differentiated mouse 3T3-L1 pre-adipocyte cells 5 uM incubated for 72 hrs by Seahorse XFp flux analyzer; assay type: functional, cell-based
3T3-L1 [6] = experiment: Anti-adipogenic activity in MDI-cocktail differentiated mouse 3T3-L1 pre-adipocyte cells assessed as inhibition of adipogenesis at 0.1 uM by Oil Red O staining based microscopic analysis; assay type: functional, cell-based
3T3-L1 [7] = experiment: Inhibition of MDI-cocktail induced adipogenic differentiation in mouse 3T3-L1 pre-adipocyte cells assessed as reduction in PPARgamma protein expression at 0.5 to 5 uM by Western blot analysis; assay type: functional, cell-based; conditions: dose 0.5-5 µM
Syrian golden hamster [8] = experiment: Anti-obesity activity in high-fat diet induced Syrian golden hamster model assessed as reduction in lipid accumulation in liver cells at 50 mg/kg, po administered for 7 days by H and E staining based inverted microscopic analysis; assay type: functional, organism-based; conditions: Mesocricetus auratus, time 7.0 day
3T3-L1 [9] = experiment: Activation of AMPK pathway in mouse 3T3-L1 mature adipocyte cells assessed as reversal of 6-(4-(2-(piperidin-1-yl)ethoxy)phenyl)-3-(pyridin-4yl)pyrazolo[1,5-a]pyrimidine induced AMPK inhibition at 5 uM incubated for 24 hrs by immunoblotting analysis; assay type: cell-based; conditions: filed as activator
Syrian golden hamster [10] = experiment: Anti-obesity activity in high-fat diet induced Syrian golden hamster model assessed as reduction in lean mass at 50 mg/kg, po administered for 7 days by 1H NMR spectroscopy-based Echo MRI system; assay type: functional, organism-based; conditions: Mesocricetus auratus, time 7.0 day
Syrian golden hamster [11] = experiment: Anti-dyslipidaemic activity in high-fat diet induced Syrian golden hamster model assessed as assessed as reduction in serum total cholesterol level at 25 to 50 mg/kg, po administered for 7 days; assay type: functional, organism-based; conditions: Mesocricetus auratus, dose 25-50 mg/kg, time 7.0 day
3T3-L1 [12] = experiment: Induction of spare respiratory capacity during early phase in MDI-cocktail differentiated mouse 3T3-L1 pre-adipocyte cells 5 uM incubated for 72 hrs by Seahorse XFp flux analyzer; assay type: functional, cell-based
3T3-L1 [13] = experiment: Upregulation of CI-NDUFB8 protein expression in mouse 3T3-L1 mature adipocytes at 1 to 5 uM incubated for 24 hrs by Western blot analysis; assay type: functional, cell-based; conditions: dose 1-5 µM
3T3-L1 [14] = experiment: Induction of cell cycle arrest in MDI-cocktail differentiated mouse 3T3-L1 pre-adipocyte cells assessed as accumulation of cells at S phase at 3 to 5 uM incubated for 24 hrs by propidium iodide staining based flow cytometry analysis; assay type: functional; conditions: dose 3-5 µM
Syrian golden hamster [15] = experiment: Anti-dyslipidaemic activity in high-fat diet induced Syrian golden hamster model assessed as assessed as reduction in serum triglyceride level at 25 to 50 mg/kg, po administered for 7 days; assay type: functional, organism-based; conditions: Mesocricetus auratus, dose 25-50 mg/kg, time 7.0 day
3T3-L1 [16] = experiment: Inhibition of MDI-cocktail induced adipogenic differentiation in mouse 3T3-L1 pre-adipocyte cells assessed as reduction in PPARgamma gene expression at 5 uM by qRT-PCR analysis; assay type: functional, cell-based
C3H 10T1/2 [17] = experiment: Anti-adipogenic activity in MDI-cocktail differentiated mouse C3H 10T1/2 cells assessed as reduction in adipogenic differentiation at 5 uM measured after 0 to 5 days by Oil Red O staining based microscopic analysis; assay type: functional, cell-based; conditions: time 0-5 day
3T3-L1 [18] = experiment: Inhibition of MDI-cocktail induced adipogenic differentiation in mouse 3T3-L1 pre-adipocyte cells assessed as reduction in lipid bound stain absorbance at 0.5 to 25 uM by Oil Red O staining based microscopic analysis; assay type: functional, cell-based; conditions: dose 0.5-25 µM
3T3-L1 [19] = experiment: Cytotoxicity against mouse 3T3-L1 pre-adipocyte cells assessed as reduction in cell viability upto 50 uM incubated for 48 hrs by MTT assay; assay type: toxicity, cell-based; conditions: 3t3-l1, 48 h
3T3-L1 [20] = experiment: Induction of basal respiration during early phase in MDI-cocktail differentiated mouse 3T3-L1 pre-adipocyte cells 5 uM incubated for 72 hrs by Seahorse XFp flux analyzer; assay type: functional, cell-based
3T3-L1 [21] = experiment: Upregulation of CIII-UQCRC2 protein expression in mouse 3T3-L1 mature adipocytes at 1 to 5 uM incubated for 24 hrs by Western blot analysis; assay type: functional, cell-based; conditions: dose 1-5 µM
3T3-L1 [22] = experiment: Inhibition of MDI-cocktail induced adipogenic differentiation in mouse 3T3-L1 pre-adipocyte cells assessed as reduction in FASN protein expression at 0.5 to 5 uM by Western blot analysis; assay type: functional, cell-based; conditions: dose 0.5-5 µM
3T3-L1 [23] = experiment: Inhibition of MDI-cocktail induced adipogenic differentiation in mouse 3T3-L1 pre-adipocyte cells assessed as reduction in FABP4 protein expression at 0.5 to 5 uM by Western blot analysis; assay type: functional, cell-based; conditions: dose 0.5-5 µM
3T3-L1 [24] = experiment: Upregulation of CV-ATP5A protein expression in mouse 3T3-L1 mature adipocytes at 1 to 5 uM incubated for 24 hrs by Western blot analysis; assay type: functional, cell-based; conditions: dose 1-5 µM
3T3-L1 [25] = experiment: Activation of AMPK in mouse 3T3-L1 mature adipocytes assessed as increase in AMPK phosphorylation at Thr172 residue incubated for 24 hrs by Western blot analysis; assay type: cell-based; conditions: filed as activator, dose 1-5 µM
C3H 10T1/2 [26] = experiment: Anti-adipogenic activity in MDI-cocktail differentiated mouse C3H 10T1/2 cells assessed as reduction in adipogenic differentiation at 5 uM measured after 5 to 7 days by Oil Red O staining based microscopic analysis; assay type: functional, cell-based; conditions: time 5-7 day
3T3-L1 [27] = experiment: Anti-adipogenic activity in MDI-cocktail differentiated mouse 3T3-L1 pre-adipocyte cells assessed as reduction in adipogenic differentiation at 5 uM measured after 0 to 3 days by Oil Red O staining based microscopic analysis; assay type: functional, cell-based; conditions: time 0-3 day
3T3-L1 [28] = experiment: Induction of mitochondrial respiration in MDI-cocktail differentiated mouse 3T3-L1 pre-adipocyte cells assessed as increase in oxygen consumption rate at 5 uM incubated for 72 hrs in presence of oligomycin by Seahorse XFp flux analyzer; assay type: functional, cell-based
3T3-L1 [29] = experiment: Induction of cell cycle arrest in MDI-cocktail differentiated mouse 3T3-L1 pre-adipocyte cells assessed as reduction in CDK2 protein expression at 5 uM measured after 16 to 24 hrs by immunoblotting analysis; assay type: functional, cell-based; conditions: time 16-24 hrs
3T3-L1 [30] = experiment: Cytotoxicity against mouse 3T3-L1 pre-adipocyte cells assessed as reduction in cell viability at 20 uM incubated for 48 hrs by MTT assay; assay type: toxicity, cell-based; conditions: 3t3-l1, 48 h
3T3-L1 [31] = experiment: Induction of mitochondrial respiration in MDI-cocktail differentiated mouse 3T3-L1 pre-adipocyte cells assessed as increase in oxygen consumption rate at 5 uM incubated for 72 hrs in presence of FCCP by Seahorse XFp flux analyzer; assay type: functional, cell-based
3T3-L1 [32] = experiment: Inhibition of MDI-cocktail induced adipogenic differentiation in mouse 3T3-L1 pre-adipocyte cells assessed as increase in ACC phosphorylation at Ser79 residue by Western blot analysis; assay type: functional, cell-based; conditions: dose 0.5-5 µM

Cc1ccc(-c2cnc(-c3ccc[n+](Cc4cccc(C)c4)c3)o2)cc1.[Br-]
Non-Toxic: Activity [1] | Activity (3T3-L1 [19]) | Activity (3T3-L1 [30])
active: inhibition (C3H 10T1/2 [2]) | inhibition (3T3-L1 [3]) | Activity (3T3-L1 [4]) | Activity (3T3-L1 [5]) | Activity (3T3-L1 [6]) | inhibition (3T3-L1 [7]) | Activity (Syrian golden hamster [8]) | Activity (3T3-L1 [9]) | Activity (Syrian golden hamster [10]) | Activity (Syrian golden hamster [11]) | Activity (3T3-L1 [12]) | Activity (3T3-L1 [13]) | Activity (3T3-L1 [14]) | Activity (Syrian golden hamster [15]) | inhibition (3T3-L1 [16]) | Activity (C3H 10T1/2 [17]) | inhibition (3T3-L1 [18]) | Activity (3T3-L1 [20]) | Activity (3T3-L1 [21]) | inhibition (3T3-L1 [22]) | inhibition (3T3-L1 [23]) | Activity (3T3-L1 [24]) | Activity (3T3-L1 [25]) Dose-Dependent Effect | Activity (C3H 10T1/2 [26]) | Activity (3T3-L1 [27]) | Activity (3T3-L1 [28]) | Activity (3T3-L1 [29]) | Activity (3T3-L1 [31]) | inhibition (3T3-L1 [32]) Dose-Dependent Effect
